Reference: ChEMBL document CHEMBL3045989, “The Veratrum alkaloids jervine, veratramine, and their analogues as prostate cancer migration and proliferation inhibitors: biological evaluation and pharmacophore modeling” (Med Chem Res, 2013)
Activity calls are given as the source filed them. The calls are words filed in the database; no cut-off is given here.

How the values were obtained:
Assay type in all cases: functional, cell-based
[1] = tested on: PC-3; assay: Antimigratory activity against Homo sapiens (human) PC3 cells at 50 uM after 24 hr by wound-healing assay
[2] = tested on: PC-3; assay: Antiproliferative activity against Homo sapiens (human) PC3 cells at 50 uM after 72 hr by MTT assay
[3] = tested on: PC-3; assay: Antiproliferative activity against Homo sapiens (human) PC3 cells at 1 uM after 72 hr by MTT assay
[4] = tested on: PC-3; assay: Antiproliferative activity against Homo sapiens (human) PC3 cells at 10 uM after 72 hr by MTT assay
[5] = tested on: PC-3; assay: Antimigratory activity against Homo sapiens (human) PC3 cells at 200 uM after 24 hr by wound-healing assay

For Cc1c([C@H](C)[C@@H]2NC[C@@H](C)C[C@H]2O)ccc2c1C[C@H]1[C@H]2CC[C@H]2CC(=O)CC[C@@]21C, the Activity [1] was “Active” and the Activity [2] was “Active”.

In the case of CC1=C2C(=O)[C@H]3[C@@H](CC=C4CC(=O)CC[C@@]43C)[C@@H]2CC[C@]12O[C@@H]1C[C@H](C)CN[C@H]1[C@H]2C, the Activity [1] is reported as “Active” and the Activity [2] is reported as “Active”.

For C/C1=C/C(=O)O[C@@H]2C[C@@H](CC[C@H](C)/C=C\C=C\CC1)O[C@@](O)([C@@H]1CSC(=O)N1)C2, the Activity [3] was “Active”.

In the case of CC1=C2C(=O)[C@H]3[C@@H](CC=C4C[C@@H](O[C@@H]5O[C@H](CO)[C@@H](O)[C@H](O)[C@H]5O)CC[C@@]43C)[C@@H]2CC[C@]12O[C@@H]1C[C@H](C)CN[C@H]1[C@H]2C, the Activity [1] is reported as “inactive” and the Activity [2] is reported as “inactive”.

For Cc1c([C@H](C)[C@@H]2NC[C@@H](C)C[C@H]2O)ccc2c1C[C@H]1[C@H]2CC=C2C[C@@H](O)CC[C@@]21C, the Activity [1] was “Active” and the Activity [2] was “Active”.

For CC1=C2C(=O)[C@H]3[C@@H](CC[C@H]4C[C@@H](O)CC[C@@]43C)[C@@H]2CC[C@]12O[C@@H]1C[C@H](C)CN[C@H]1[C@H]2C, the Activity [1] was “inactive” and the Activity [2] was “Active”.

With Cc1c([C@H](C)[C@@H]2NC[C@@H](C)C[C@H]2O)ccc2c1C[C@H]1[C@H]2CCC2=CC(=O)CC[C@@]21C the Activity [1] was “Active”, the Activity [4] was “Active” and the Activity [2] was “Active”.

With O=C1NC(=O)/C(=C/c2ccc(O)cc2)N1 the Activity [5] was “Active”.

In the case of CC1=C2C(=O)[C@H]3[C@@H](CC=C4C[C@@H](O)CC[C@@]43C)[C@@H]2CC[C@]12O[C@@H]1C[C@H](C)CN[C@H]1[C@H]2C, the Activity [1] is reported as “Active” and the Activity [2] is reported as “Active”.

Cc1c([C@H](C)[C@@H]2NC[C@@H](C)C[C@H]2O)ccc2c1C[C@H]1[C@H]2CCC2=CC(=O)C=C[C@@]21C was tested, and the Activity [1] was “Active” and the Activity [2] was “Active”.

CC1=C2C(=O)[C@H]3[C@@H](CC[C@H]4C[C@@H](O)C[C@H](O)[C@@]43C)[C@@H]2CC[C@]12O[C@@H]1C[C@H](C)CN[C@H]1[C@H]2C was tested, and the Activity [1] was “Active” and the Activity [2] was “inactive”.
